Some test systems named below: HCT-15; HL-60; UACC-257; RPMI-8226; COLO 205; MOLT-4; T47D; OVCAR-8; NCI-H522; SNB-75; IGROV-1; HCT-116; NCI-H226; SK-MEL-5; CCRF-CEM; SR; SNB-19; DU-145; SK-MEL-28; MDA-MB-435.
Common to all, as to experiment: NCI anticancer screen, dose series, 48 h

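Assay format: 96-well plates, 48-hour exposure. Here, GI50 denotes the concentration required for 50% inhibition of growth.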 Calls of active or inactive are those of the source. Rule as the data show it: active = GI50 up to about 1.1 µM and inactive = higher.

`NC1(c2cc3ccccc3s2)CCCC1`: the GI50 with HCT-15 is 65.2 µM; with HL-60, 18.3 µM (inactive); in the assay with UACC-257, 31 µM (inactive); with RPMI-8226, 17.7 µM (inactive); with COLO 205 it was 22.9 µM (inactive); in the assay on MOLT-4 it was 18.4 µM (inactive). The GI50 in the assay on T47D was 36.3 µM (inactive); in the assay with OVCAR-8, > 100 µM (inactive); with NCI-H522, 92.5 µM (inactive); in the assay on SNB-75 it was 67.9 µM (inactive); in the assay on IGROV-1 it was > 100 µM (inactive); in the assay with HCT-116, 33.8 µM (inactive). Besides, the GI50 with NCI-H226 was > 100 µM (inactive); in the assay on SK-MEL-5 it was 24.1 µM (inactive); in the assay with CCRF-CEM, 16.9 µM (inactive); with SR it was 21.1 µM (inactive); in the assay on SNB-19 it was > 100 µM (inactive); with DU-145, > 100 µM (inactive). Besides, the results for the GI50 in the assay with SK-MEL-28 and in the assay with MDA-MB-435 were 23.7 µM (inactive) and 41 µM (inactive), respectively.

With `Nc1nc(Cl)c2ncn(Cc3ccc(CCl)cc3)c2n1`, the GI50 with HCT-15 is 4.95 µM; in the assay with HL-60, 6.81 µM (inactive); in the assay on UACC-257, 12.5 µM (inactive); in the assay with RPMI-8226, 3.83 µM (inactive); in the assay on COLO 205, 3.64 µM (inactive); with MOLT-4, 2.96 µM (inactive). For the same molecule, the GI50 was 6.98 µM (inactive) with T47D; 5.13 µM (inactive) in the assay with OVCAR-8; 10.7 µM (inactive) in the assay with NCI-H522; 23.1 µM (inactive) in the assay on SNB-75; 9.23 µM (inactive) in the assay with IGROV-1; 2.76 µM (inactive) in the assay with HCT-116. The GI50 in the assay with NCI-H226 is 10.4 µM (inactive); in the assay on SK-MEL-5, 15.3 µM (inactive); with CCRF-CEM, 2.68 µM (inactive); in the assay on SR, 3.02 µM (inactive); in the assay on SNB-19, 6.78 µM (inactive); with DU-145 it was 6.59 µM (inactive). Also, the values for the GI50 with SK-MEL-28 and in the assay on MDA-MB-435 were 18 µM (inactive) and 16.6 µM (inactive), respectively.

On to `N#Cc1c(C#N)c(SSc2c(C#N)c(C#N)c(N)n2-c2ccc(F)cc2)n(-c2ccc(F)cc2)c1N`, for which the GI50 is 2.03 µM with HCT-15; 2 µM (inactive) in the assay on HL-60; 5.93 µM (inactive) with UACC-257; 2.37 µM (inactive) in the assay on RPMI-8226; 1.95 µM (inactive) with COLO 205; 0.619 µM (active) with MOLT-4. Further, the GI50 in the assay with T47D is 2.7 µM (inactive); with OVCAR-8 it was 6.55 µM (inactive); with NCI-H522 it was 1.7 µM (inactive); with SNB-75 it was 5.77 µM (inactive); in the assay on IGROV-1, 16.7 µM (inactive); with HCT-116, 1.9 µM (inactive). In addition, the GI50 in the assay on NCI-H226 is 20.8 µM (inactive); with SK-MEL-5, 17.4 µM (inactive); in the assay on CCRF-CEM, 2.02 µM (inactive); in the assay on SR it was 0.59 µM (active); with SNB-19, 21.6 µM (inactive); with DU-145, 16 µM (inactive). The GI50 in the assay with SK-MEL-28 is 3.72 µM (inactive); in the assay on MDA-MB-435, 8.11 µM (inactive).

On to `COc1ccc([C@H]2CC(=O)C[C@H](c3ccc(OC)cc3OC)C23C(=O)c2ccccc2C3=O)c(OC)c1`, for which the GI50 was over 100 µM in the assay on HCT-15; > 100 µM (inactive) in the assay on HL-60; > 100 µM (inactive) in the assay with UACC-257; > 100 µM (inactive) in the assay with RPMI-8226; > 100 µM (inactive) in the assay on COLO 205; > 100 µM (inactive) in the assay with MOLT-4. Also, the GI50 in the assay with T47D is > 100 µM (inactive); in the assay on OVCAR-8, 99.5 µM (inactive); with NCI-H522 it was > 100 µM (inactive); in the assay on SNB-75, 26.9 µM (inactive); in the assay with IGROV-1, > 100 µM (inactive); in the assay on HCT-116, > 100 µM (inactive). The GI50 in the assay with NCI-H226 was > 100 µM (inactive); with SK-MEL-5, 68.1 µM (inactive); in the assay on CCRF-CEM, > 100 µM (inactive); in the assay with SR, > 100 µM (inactive); in the assay with SNB-19, > 100 µM (inactive); in the assay on DU-145, > 100 µM (inactive). In addition, the GI50 in the assay on SK-MEL-28 and with MDA-MB-435 was > 100 µM (inactive) throughout.

In the case of `O=C(c1cccc(OCc2ccccc2)c1OCc1ccccc1)N1CCSC1=S`, the GI50 is 23.2 µM in the assay with HCT-15; 5.92 µM (inactive) in the assay with HL-60; 28.5 µM (inactive) in the assay on UACC-257; 8.38 µM (inactive) in the assay on RPMI-8226; 12 µM (inactive) in the assay with COLO 205; 12.6 µM (inactive) in the assay on MOLT-4. Moreover, the GI50 with T47D is 5.66 µM (inactive); with OVCAR-8, 21.8 µM (inactive); in the assay with NCI-H522, 12.3 µM (inactive); in the assay on SNB-75 it was 5.64 µM (inactive); in the assay on IGROV-1, 28.6 µM (inactive); in the assay with HCT-116 it was 21.4 µM (inactive). For the same molecule, the GI50 in the assay with NCI-H226 is 23.8 µM (inactive); in the assay with SK-MEL-5, 14 µM (inactive); in the assay on CCRF-CEM it was 5.05 µM (inactive); with SR, 8.36 µM (inactive); with SNB-19, > 46.6 µM (inactive); in the assay on DU-145 it was 28.1 µM (inactive). The values for the GI50 in the assay on SK-MEL-28 and in the assay with MDA-MB-435 were 48.5 µM (inactive) and 27.2 µM (inactive), respectively.

As for `Cc1ccc(-n2c(=O)c3nn4c(=O)n(-c5ccc(C)cc5)c(=O)c4nn3c2=O)cc1`, the GI50 in the assay with HCT-15 is over 100 µM; in the assay on HL-60, > 100 µM (inactive); with UACC-257, > 100 µM (inactive); in the assay with RPMI-8226 it was > 100 µM (inactive); in the assay with COLO 205, > 100 µM (inactive); in the assay on MOLT-4, > 100 µM (inactive). Also, the GI50 with T47D was > 100 µM (inactive); with OVCAR-8 it was > 100 µM (inactive); in the assay with NCI-H522 it was > 100 µM (inactive); with SNB-75, 58.3 µM (inactive); in the assay with IGROV-1, > 100 µM (inactive); in the assay with HCT-116, > 100 µM (inactive). Further, the GI50 in the assay with NCI-H226, in the assay on SK-MEL-5, in the assay on CCRF-CEM, with SR, in the assay with SNB-19 and in the assay on DU-145 was > 100 µM (inactive) throughout. For the same molecule, the GI50 in the assay on SK-MEL-28 and in the assay on MDA-MB-435 was > 100 µM (inactive) throughout.

Regarding `NC(=O)N/N=C1\CC2C3CC4C2C4C13` (stereo not given), the GI50 in the assay with HCT-15 is over 100 µM; in the assay with HL-60, > 100 µM (inactive); in the assay on UACC-257 it was > 100 µM (inactive); with RPMI-8226 it was > 100 µM (inactive); in the assay on COLO 205, > 100 µM (inactive); in the assay on MOLT-4 it was > 100 µM (inactive). For the same molecule, the GI50 in the assay with T47D, in the assay with OVCAR-8, with NCI-H522, in the assay on SNB-75, with IGROV-1 and in the assay with HCT-116 was > 100 µM (inactive) throughout. In addition, the GI50 in the assay on NCI-H226, with SK-MEL-5, in the assay on CCRF-CEM, in the assay on SR, with SNB-19 and with DU-145 was > 100 µM (inactive) each time. In addition, the GI50 in the assay on SK-MEL-28 and in the assay on MDA-MB-435 was > 100 µM (inactive) throughout.

The values above are taken from ChEMBL document CHEMBL1201862, “PubChem BioAssay data set” (2004).
